For assay [1], the target named is human RORγt ligand binding domain (RORγt LBD) (Homo sapiens (Human), UniProt P51449). Kind of assay: RORγt ThermoFluor® assay (thermal shift binding). The method, then:
This approach is applicable to a wide variety of systems, and rigorous in theoretical interpretation through quantitation of equilibrium binding constants (KD).
The shift in the melting point described as a ΔTm is proportional to the concentration and affinity of the ligand.
RORγt ThermoFluor® Assay Construct
Reference wells contained RORγt without compounds, and the assay conditions were as follows: • 0.065 mg/mL RORγt • 60 μM 1,8-ANS • 100 mM Hepes, pH 7.0 • 10 mM NaCl • 2.5 mM GSH • 0.002% Tween-20
Project compounds were arranged in a pre-dosed mother plate (Greiner Bio-one) wherein compounds are serially diluted in 100% DMSO by 1:2 from a high concentration of 10 mM over 12 columns within a series (column 12 is a reference well containing DMSO, no compound). The compounds were robotically dispensed directly into assay plates (1×=46 nL) using a Hummingbird capillary liquid handling instrument (Digilab). Following compound dispense, protein and dye in buffer was added to achieve the final assay volume of 3 μL, followed by 1 μL of silicone oil.
A general note: In DSF a fluorescence change marks the thermal transition of the protein.

A further assay addresses full-length human RORγt (Homo sapiens (Human), UniProt P51449). The assay can be described thus: RORγt (full-length human) reporter assay, conditions A or B, HEK293T cells. Format: cell-based. Conditions: for inhibition at […]: 0.22 μM compound concentration (footnote *******); for inhibition at 2 µM: 2 μM compound concentration; for inhibition at 6 µM: read-out: RORγt (FL) Reporter Assay A or B, % inhibition @ 6 μM. A digest of the protocol: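 Dual-luciferase read-out was taken after an overnight (16–20 h) compound exposure. Firefly data were scaled between DMSO-only and saturating reference compound, Renilla-normalized, then plotted against concentration for IC50.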

Setting [2] is: read-out: ThermoFluor® Assay, Kd.
[3] abbreviates: HEK293T cells, read-out: RORγt (FL) Reporter Assay A or B, IC50.
[4] abbreviates: HEK-293T, read-out: RORγt (FL) Reporter Assay A or B, % inhibition.
Setting [5] is: RORγt (FL) Reporter Assay A or B, IC50, HEK293T cells.
Where [6] appears, read: HEK-293T, 6 μM compound concentration.
The mark [7] stands for this setting: HEK-293T, 3 μM compound concentration (footnote *), read-out: RORγt (FL) Reporter Assay A or B, % inhibition.

pIC50, pKd: −log10 of the molar value. Structures can show the parent of a compound that is named as a salt. Where two headings read alike, the source gives them in different places. Marks after values point to notes of the source that are not given here.

Chain of full-length human RORγt (P51449 other isoform, or with tags, fused parts or gaps): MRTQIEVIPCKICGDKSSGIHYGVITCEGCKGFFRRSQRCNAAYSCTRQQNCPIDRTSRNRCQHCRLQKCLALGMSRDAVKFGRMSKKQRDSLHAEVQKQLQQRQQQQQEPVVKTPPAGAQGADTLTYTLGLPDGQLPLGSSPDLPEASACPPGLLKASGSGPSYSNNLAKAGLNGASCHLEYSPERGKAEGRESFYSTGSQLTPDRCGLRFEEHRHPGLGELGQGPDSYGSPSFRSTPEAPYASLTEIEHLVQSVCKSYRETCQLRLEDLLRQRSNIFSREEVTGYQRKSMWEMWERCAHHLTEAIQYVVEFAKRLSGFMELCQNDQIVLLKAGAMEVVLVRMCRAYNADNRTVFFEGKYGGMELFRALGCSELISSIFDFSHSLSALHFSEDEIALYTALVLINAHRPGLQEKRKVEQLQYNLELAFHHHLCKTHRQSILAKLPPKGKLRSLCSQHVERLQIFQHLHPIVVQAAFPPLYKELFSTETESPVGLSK
Chain of human RORγt ligand binding domain (RORγt LBD) (P51449 other isoform, or with tags, fused parts or gaps): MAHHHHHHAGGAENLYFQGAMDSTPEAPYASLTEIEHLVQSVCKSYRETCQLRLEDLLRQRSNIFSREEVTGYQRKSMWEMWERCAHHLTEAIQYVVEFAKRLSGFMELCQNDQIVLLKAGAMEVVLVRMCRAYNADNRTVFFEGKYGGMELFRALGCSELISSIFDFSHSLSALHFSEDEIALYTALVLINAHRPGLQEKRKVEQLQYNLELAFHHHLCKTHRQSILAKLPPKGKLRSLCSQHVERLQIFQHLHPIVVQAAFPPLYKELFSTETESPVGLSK

For `CCn1nc(C(=O)NC[C@H]2CC[C@H](S(=O)(=O)NC)CC2)c(Cl)c1-c1ccc(CC(C)(C)C(F)(F)F)cc1OC(F)F` [Example 50, 4-Chloro-5-(2-(difluoromethoxy)-4-(3,3,3-trifluoro-2,2-dimethylpropyl)phenyl)-1-ethyl-N-(((1r,4r)-4-(N-methylsulfamoyl)cyclohexyl)methyl)-1H-pyrazole-3-carboxamide], the pKd in assay [1] (setting [2]) was 10.00. Also, the pIC50 at full-length human RORγt (setting [3]) was 8.52.

`CCn1nc(C(=O)NC[C@H]2CC[C@H](S(C)(=O)=O)CC2)c(Cl)c1-c1ccc(CC(C)(C)C(F)(F)F)cc1F` [Example 177, 4-Chloro-1-ethyl-5-(2-fluoro-4-(3,3,3-trifluoro-2,2-dimethylpropyl)phenyl)-N-(((1r,4r)-4-(methylsulfonyl)cyclohexyl)methyl)-1H-pyrazole-3-carboxamide]: in assay [1] (setting [2]), the pKd is 8.66. Further, the inhibition at […] at full-length human RORγt (setting [4]) amounted to 77%. On full-length human RORγt (setting [5]), this compound had a pIC50 of 8.14.

For `CCn1nc(C(=O)NC[C@H]2CC[C@H](S(=O)(=O)NC(C)=O)CC2)c(Cl)c1-c1ccc(CC(C)(C)C(F)(F)F)cc1OC(F)F` [Example 68, N-(((1r,4r)-4-(N-Acetylsulfamoyl)cyclohexyl)methyl)-4-chloro-5-(2-(difluoromethoxy)-4-(3,3,3-trifluoro-2,2-dimethylpropyl)phenyl)-1-ethyl-1H-pyrazole-3-carboxamide], in assay [1] (setting [2]), the pKd was 9.15. Moreover, on full-length human RORγt (3 μM compound concentration (footnote *)), the “RORγt (FL) Reporter Assay A or B, % inhibition” value is 97* %. The pIC50 on full-length human RORγt (setting [3]) was 7.41.

Regarding `CCn1nc(C(=O)NC[C@H]2CC[C@H](S(C)(=O)=O)CC2)c(Cl)c1-c1ccc(OC(C)C(F)(F)F)cc1OC` (some centres unmarked) [Example 212, 4-Chloro-1-ethyl-5-(2-methoxy-4-((1,1,1-trifluoropropan-2-yl)oxy)phenyl)-N-(((1r,4r)-4-(methylsulfonyl)cyclohexyl)methyl)-1H-pyrazole-3-carboxamide], the pKd in assay [1] (setting [2]) was 8.13. Also, the inhibition at 2 µM at full-length human RORγt (setting [4]) amounted to 81%. The pIC50 against full-length human RORγt (setting [5]) was 7.48.

As to `CCn1nc(C(=O)NC[C@]2(O)CC[C@H](S(C)(=O)=O)C[C@H]2O)c(Cl)c1-c1ccc(CC(C)(C)C(F)(F)F)cc1OC(F)F` (single isomer, unassigned) [Example 48, 4-Chloro-5-(2-(difluoromethoxy)-4-(3,3,3-trifluoro-2,2-dimethylpropyl)phenyl)-N-(((1R*,2R*4S*)-1,2-dihydroxy-4-(methylsulfonyl)cyclohexyl)methyl)-1-ethyl-1H-pyrazole-3-carboxamide], the pKd in assay [1] (ThermoFluor® Assay, Kd) is 7.51. Besides, the inhibition at 2 µM at full-length human RORγt (setting [4]) came out at 95%. Further, the negative-log IC50 (pIC50) against full-length human RORγt (setting [5]) was 7.21.

`COc1cc(N[C@H](C)C(F)(F)F)ccc1-c1c(Cl)c(C(=O)NC[C@]2(O)CC[C@@H](S(C)(=O)=O)CC2)nn1C(C)(C)C` [Example 27, 1-(tert-Butyl)-4-chloro-N-(((1s,4S)-1-hydroxy-4-(methylsulfonyl)cyclohexyl)methyl)-5-(2-methoxy-4-(((R)-1,1,1-trifluoropropan-2-yl)amino)phenyl)-1H-pyrazole-3-carboxamide]: the pKd in assay [1] (setting [2]) was 8.13. Moreover, at full-length human RORγt (setting [6]), the inhibition at 6 µM was 105%. On full-length human RORγt (setting [5]), the pIC50 is 7.22.

As to `CCn1nc(C(=O)NC[C@]2(O)CC[C@@H](S(C)(=O)=O)CC2)c(C(F)(F)F)c1-c1ccc(N[C@H](C)C(F)(F)F)cc1OC` [Example 217, 1-Ethyl-N-(((1s,4S)-1-hydroxy-4-(methylsulfonyl)cyclohexyl)methyl)-5-(2-methoxy-4-(((R)-1,1,1-trifluoropropan-2-yl)amino)phenyl)-4-(trifluoromethyl)-1H-pyrazole-3-carboxamide], in assay [1] (setting [2]), the pKd was 7.77. The “RORγt (FL) Reporter Assay A or B, % inhibition” value at full-length human RORγt (1 μM compound concentration (footnote ***)) is recorded as 104*** %. Also, the negative-log IC50 (pIC50) on full-length human RORγt (setting [3]) is 7.89.

`CCn1nc(C(=O)NC[C@H]2CC[C@@H](S(C)(=O)=O)CN2)c(Cl)c1-c1ccc(CC(C)(C)C(F)(F)F)cc1OC(F)F` (stereo in doubt) [Example 11, 4-Chloro-5-(2-(difluoromethoxy)-4-(3,3,3-trifluoro-2,2-dimethylpropyl)phenyl)-1-ethyl-N-(((2RS,5RS)-5-(methylsulfonyl)piperidin-2-yl)methyl)-1H-pyrazole-3-carboxamide Hydrobromide]: in assay [1] (ThermoFluor® Assay, Kd), the pKd is 7.46. Also, at full-length human RORγt (setting [7]), the inhibition at 3 µM was 100%. The pIC50 against full-length human RORγt (setting [5]) was 6.72.

For the compound `CCn1nc(C(=O)NC[C@H]2CC[C@H](S(C)(=O)=O)CC2)c(Cl)c1-c1ccc(CCC(F)(F)F)cc1Cl` [Example 174, 4-Chloro-5-(2-chloro-4-(3,3,3-trifluoropropyl)phenyl)-1-ethyl-N-(((1r,4r)-4-(methylsulfonyl)cyclohexyl)methyl)-1H-pyrazole-3-carboxamide], the pKd in assay [1] (setting [2]) was 8.23. Moreover, the inhibition at 0.67 µM on full-length human RORγt (setting [4]) came to 40%. This compound also showed a pIC50 against full-length human RORγt (setting [5]) of 7.42.

For `Cc1c(C(=O)NC[C@]2(O)CC[C@@H](S(C)(=O)=O)CC2)nn(C)c1-c1ccc(CC(C)(C)C(F)(F)F)cc1OC(F)F` [Example 157, 5-(2-(Difluoromethoxy)-4-(3,3,3-trifluoro-2,2-dimethylpropyl)phenyl)-N-(((1s,4s)-1-hydroxy-4-(methylsulfonyl)cyclohexyl)methyl)-1,4-dimethyl-1H-pyrazole-3-carboxamide], in assay [1] (setting [2]), the pKd was 9.10. For the same compound, the inhibition at 0.3 µM at full-length human RORγt (setting [4]) turned out to be 101%. Further, the pIC50 at full-length human RORγt (setting [5]) was 7.89.

As for `CCn1nc(C(=O)NC[C@]2(O)CC[C@@H](S(C)(=O)=O)C[C@H]2O)c(C)c1-c1ccc(C[C@@H](C)C(F)(F)F)cc1OC(F)F` (stereo in doubt) [Example 140, 5-(2-(Difluoromethoxy)-4-((R*)-3,3,3-trifluoro-2-methylpropyl)phenyl)-N-(((1R*,2R*,4R*)-1,2-dihydroxy-4-(methylsulfonyl)cyclohexyl)methyl)-1-ethyl-4-methyl-1H-pyrazole-3-carboxamide], the pKd in assay [1] (ThermoFluor® Assay, Kd) was 8.62. Besides, the inhibition at 3 µM at full-length human RORγt (setting [7]) worked out at 109%. Moreover, the negative-log IC50 (pIC50) against full-length human RORγt (setting [5]) is 7.82.

In the case of `CCn1nc(C(=O)NC[C@]2(C#N)CC[C@@H](S(C)(=O)=O)CC2)c(Cl)c1-c1ccc(CC(C)(C)C(F)(F)F)cc1` [Example 169, 4-Chloro-N-(((1s*,4s*)-1-cyano-4-(methylsulfonyl)cyclohexyl)methyl)-1-ethyl-5-(4-(3,3,3-trifluoro-2,2-dimethylpropyl)phenyl)-1H-pyrazole-3-carboxamide], in assay [1] (setting [2]), the pKd was 8.47. Besides, the inhibition at […] at full-length human RORγt (setting [4]) worked out at 85%. This compound also gave a pIC50 at full-length human RORγt (setting [5]) of 7.39.

In the case of `Cn1nc(C(=O)NC[C@]2(O)CC[C@@H](S(C)(=O)=O)CC2)c(Cl)c1-c1ccc(CCCC(F)(F)F)cc1OC(F)F` [Example 158, 4-Chloro-5-(2-(difluoromethoxy)-4-(4,4,4-trifluorobutyl)phenyl)-N-(((1s,4s)-1-hydroxy-4-(methylsulfonyl)cyclohexyl)methyl)-1-methyl-1H-pyrazole-3-carboxamide], the pKd in assay [1] (setting [2]) is 7.80. In addition, the inhibition at 3 µM at full-length human RORγt (setting [7]) amounted to 111%. On full-length human RORγt (setting [5]), this compound showed a negative logarithm of the IC50 (pIC50) of 8.47.

Regarding `CCn1nc(C(=O)NC[C@]2(O)CC[C@@H](S(C)(=O)=O)CC2)c(Cl)c1-c1ccc(N[C@H](C)C(F)(F)F)cc1` [Example 195, 4-Chloro-1-ethyl-N-(((1s,4S)-1-hydroxy-4-(methylsulfonyl)cyclohexyl)methyl)-5-(4-(((R)-1,1,1-trifluoropropan-2-yl)amino)phenyl)-1H-pyrazole-3-carboxamide], in assay [1] (setting [2]), the pKd is 7.28. The inhibition at 6 µM at full-length human RORγt (HEK-293T) is 96%. The compound further gave a pIC50 against full-length human RORγt (setting [5]) of 6.52.

With `CCn1nc(C(=O)NC[C@@H]2CC[C@H](S(C)(=O)=O)CN2)c(Cl)c1-c1ccc(CC(C)(C)C(F)(F)F)cc1OC(F)F` (stereo in doubt) [Example 12, 4-Chloro-5-(2-(difluoromethoxy)-4-(3,3,3-trifluoro-2,2-dimethylpropyl)phenyl)-1-ethyl-N-(((2S*,5S*)-5-(methylsulfonyl)piperidin-2-yl)methyl)-1H-pyrazole-3-carboxamide], the negative-log Kd (pKd) in assay [1] (ThermoFluor® Assay, Kd) was 7.13. Further, the inhibition at 3 µM on full-length human RORγt (setting [7]) was determined as 92%. At full-length human RORγt (setting [5]), this compound had a pIC50 of 7.04.

With `COCCn1nc(C(=O)NC[C@]2(O)CC[C@@H](S(C)(=O)=O)CC2)c(Cl)c1-c1ccc(CC(C)(C)C(F)(F)F)cc1OC` [Example 186, 4-Chloro-N-(((1s,4s)-1-hydroxy-4-(methylsulfonyl)cyclohexyl)methyl)-5-(2-methoxy-4-(3,3,3-trifluoro-2,2-dimethylpropyl)phenyl)-1-(2-methoxyethyl)-1H-pyrazole-3-carboxamide], in assay [1] (setting [2]), the pKd was 8.11. Moreover, the inhibition at 6 µM at full-length human RORγt (setting [6]) was 96%. The compound also had a pIC50 against full-length human RORγt (setting [5]) of 7.47.

Broadly, the pKd is −log10 of the Kd, conventionally taken in molar units. One may read the pIC50 as the negative decadic logarithm of the IC50, by convention in mol/L. One may read the inhibition as the change of the read-out against control, counted positive when it falls.

Values taken from patent US10975037B2 (priority 2018, dated 2021).
